The values that follow come from patent publication US20220127247A1, “N-(PYRIDIN-2-YL)PYRIDINE-SULFONAMIDE DERIVATIVES AND THEIR USE IN THE TREATMENT OF DISEASE” (NOVARTIS AG, priority 2019, published 2022).

Usually EC50 stands for the midpoint of the concentration-response curve.

This test concerns the target T1, delF508-CFTR (Homo sapiens, UniProt P13569, DEL508-508).
T1 construct: expressed in transfected cells
Put plainly: Measurement of delF508-CFTR-HRP surface expression in CFBE41o- cells. It is filed as cell-based. To be noted: for EC50: HRP-tagged delF508-CFTR in CFBE41o- cells, 24 h with compound, luminescence, 10-point curve, top 10 μM; for Emax: efficacy relative to reference compound 3-(6-(1-(2,2-difluorobenzo[d][1,3]dioxol-5-yl)cyclopropane-1-carboxamido)-3-methylpyridin-2-yl)benzoic acid, CFBE41o- cells, 24 h, read-out: DelF508-CFTR-HRP Amax %. Summed up: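 CFBE41o- cells stably expressing delF508-CFTR with HRP in the fourth extracellular loop, induced with 500 ng/mL doxycycline for 48 h, then treated with compound (top 10 μM, 10-point 3-fold) for 24 h at 37° C. Surface HRP detected by luminescence with cell-impermeant substrate; EC50 from logistic fit of triplicates, normalized to lowest concentration.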

Structures are written as SMILES.

T1 sequence (P13569 with tags, fused parts or gaps DEL508-508): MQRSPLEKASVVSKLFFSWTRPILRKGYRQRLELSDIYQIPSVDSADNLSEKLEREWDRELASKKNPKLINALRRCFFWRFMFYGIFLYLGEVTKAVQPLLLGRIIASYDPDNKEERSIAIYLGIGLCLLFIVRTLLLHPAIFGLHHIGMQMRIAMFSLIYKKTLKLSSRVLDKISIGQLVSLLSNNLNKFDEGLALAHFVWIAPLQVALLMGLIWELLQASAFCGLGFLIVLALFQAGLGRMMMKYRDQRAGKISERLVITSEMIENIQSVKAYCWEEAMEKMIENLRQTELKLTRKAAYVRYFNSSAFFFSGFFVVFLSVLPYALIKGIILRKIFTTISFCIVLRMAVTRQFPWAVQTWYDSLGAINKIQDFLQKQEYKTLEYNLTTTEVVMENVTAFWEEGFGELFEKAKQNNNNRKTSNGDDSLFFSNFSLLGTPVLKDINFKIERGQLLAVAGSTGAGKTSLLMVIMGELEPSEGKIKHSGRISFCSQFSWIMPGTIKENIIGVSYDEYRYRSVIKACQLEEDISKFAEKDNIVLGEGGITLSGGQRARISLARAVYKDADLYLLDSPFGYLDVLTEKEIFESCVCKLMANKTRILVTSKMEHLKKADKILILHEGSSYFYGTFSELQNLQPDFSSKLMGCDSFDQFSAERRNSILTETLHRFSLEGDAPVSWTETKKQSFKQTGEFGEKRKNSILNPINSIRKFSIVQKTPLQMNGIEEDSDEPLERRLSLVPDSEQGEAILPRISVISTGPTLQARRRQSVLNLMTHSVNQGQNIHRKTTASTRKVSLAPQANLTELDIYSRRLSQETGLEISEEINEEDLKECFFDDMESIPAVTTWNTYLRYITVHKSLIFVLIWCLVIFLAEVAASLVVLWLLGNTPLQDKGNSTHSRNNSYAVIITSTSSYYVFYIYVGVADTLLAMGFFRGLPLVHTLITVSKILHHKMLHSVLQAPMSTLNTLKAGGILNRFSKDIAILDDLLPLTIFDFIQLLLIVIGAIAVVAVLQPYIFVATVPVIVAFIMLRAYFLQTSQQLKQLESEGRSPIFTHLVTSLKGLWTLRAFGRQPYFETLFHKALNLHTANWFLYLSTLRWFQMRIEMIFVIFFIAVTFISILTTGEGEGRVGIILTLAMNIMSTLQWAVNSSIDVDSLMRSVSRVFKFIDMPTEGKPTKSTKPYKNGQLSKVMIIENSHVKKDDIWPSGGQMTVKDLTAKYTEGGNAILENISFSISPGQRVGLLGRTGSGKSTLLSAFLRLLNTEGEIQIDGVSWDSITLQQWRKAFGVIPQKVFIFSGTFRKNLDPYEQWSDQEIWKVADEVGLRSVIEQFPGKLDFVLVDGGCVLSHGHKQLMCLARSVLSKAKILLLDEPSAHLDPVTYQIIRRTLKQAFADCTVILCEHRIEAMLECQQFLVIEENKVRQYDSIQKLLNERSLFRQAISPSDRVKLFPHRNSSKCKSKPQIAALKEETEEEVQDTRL

With `Cc1ccccc1-c1nc(NS(=O)(=O)c2cccc(N(CCC(=O)O)CCC(F)(F)F)n2)ccc1C(F)(F)F` [Compound 150, 3-((6-(N-(6-(o-tolyl)-5-(trifluoromethyl)pyridin-2-yl)sulfamoyl)pyridin-2-yl)(3,3,3-trifluoropropyl)amino)propanoic Acid], the EC50 is 1.67 µM.
Same read-out and setting: the result for `Cc1ccc(F)cc1-c1nc(NS(=O)(=O)c2cccc(N(C)CC3(C(=O)O)CCC3)n2)ccc1C(F)(F)F` [Compound 139, 1-(((6-(N-(6-(5-fluoro-2-methylphenyl)-5-(trifluoromethyl)pyridin-2-yl)sulfamoyl)pyridin-2-yl)(methyl)amino)methyl)cyclobutane-1-carboxylic Acid] reads 1.12 µM.
For the compound `Cc1ccccc1-c1nc(NS(=O)(=O)c2cccc(N(C)CCC(=O)O)n2)ccc1C(F)(F)F` [Compound 34, 3-(methyl(6-(N-(6-(o-tolyl)-5-(trifluoromethyl)pyridin-2-yl)sulfamoyl)pyridin-2-yl)amino)propanoic Acid], the EC50 turned out to be 2.58 µM and the Emax stood at 785%.
For the compound `CC1(C(=O)O)CCN(c2cccc(S(=O)(=O)Nc3ccc(C(F)(F)F)c(-c4ccccc4-c4ccccc4)n3)n2)CC1` [Compound 20, 1-(6-(N-(6-([1,1′-biphenyl]-2-yl)-5-(trifluoromethyl)pyridin-2-yl)sulfamoyl)pyridin-2-yl)-4-methylpiperidine-4-carboxylic Acid], the EC50 came to 0.8 µM and the Emax came out at 973%.
`Cc1ccc(F)cc1-c1nc(NS(=O)(=O)c2cccc(N(C)CC3(C(=O)O)CCOCC3)n2)ccc1C(F)(F)F` [Compound 138, 4-(((6-(N-(6-(5-fluoro-2-methylphenyl)-5-(trifluoromethyl)pyridin-2-yl)sulfamoyl)pyridin-2-yl)(methyl)amino)methyl)tetrahydro-2H-pyran-4-carboxylic Acid]: the EC50 is 1.98 µM and the Emax was 463%.
Consider `Cc1ccccc1-c1nc(NS(=O)(=O)c2cccc(NCC3(C(=O)O)CC3)n2)ccc1C(F)(F)F` [Compound 11, 1-(((6-(N-(6-(o-tolyl)-5-(trifluoromethyl)pyridin-2-yl)sulfamoyl)pyridin-2-yl)amino)methyl)cyclopropane-1-carboxylic Acid], for which the EC50 came out at 2.25 µM and the Emax was found to be 415%.
Consider `Cc1ccc(F)cc1-c1nc(NS(=O)(=O)c2cccc(N(C)CC(C)(C)C(=O)O)n2)ccc1C(F)(F)F` [Compound 45, 3-((6-(N-(6-(5-fluoro-2-methylphenyl)-5-(trifluoromethyl)pyridin-2-yl)sulfamoyl)pyridin-2-yl)(methyl)amino)-2,2-dimethylpropanoic Acid], for which the EC50 stood at 1.57 µM and the Emax was 598%.
`CCc1ccc(F)cc1-c1nc(NS(=O)(=O)c2cccc(N(CCC(=O)O)C3CC3)n2)ccc1C(F)(F)F` [Compound 113, 3-(cyclopropyl(6-(N-(6-(2-ethyl-5-fluorophenyl)-5-(trifluoromethyl)pyridin-2-yl)sulfamoyl)pyridin-2-yl)amino)propanoic Acid]: the EC50 came out at 1.77 µM and the Emax was found to be 715%.
As for `CCCCN(CCCC(=O)O)c1cccc(S(=O)(=O)Nc2ccc(Cl)c(-c3cccnc3C(C)C)n2)n1` [Compound 112, 4-(butyl(6-(N-(3-chloro-2′-isopropyl-[2,3′-bipyridin]-6-yl)sulfamoyl)pyridin-2-yl)amino)butanoic Acid], the EC50 came out at 1.57 µM.
Turning to `Cc1ccccc1-c1nc(NS(=O)(=O)c2cccc(N[C@@H]3CCC[C@H](C(=O)O)C3)n2)ccc1C(F)(F)F` (racemic) [106a 106b (racemic mixture)], the EC50 amounted to 1.95 µM and the Emax was determined as 392%.
`Cc1c(F)cccc1-c1nc(NS(=O)(=O)c2cccc(N(C)CCC(=O)O)n2)ccc1C(F)(F)F` [Compound 49, 3-((6-(N-(6-(3-fluoro-2-methylphenyl)-5-(trifluoromethyl)pyridin-2-yl)sulfamoyl)pyridin-2-yl)(methyl)amino)propanoic Acid]: the 50% effective concentration (EC50) came out at 2.03 µM and the Emax was determined as 557%.
`Cc1cccc(C)c1-c1nc(NS(=O)(=O)c2cccc(NCCCC(=O)O)n2)ccc1Cl` [Compound 3, 4-((6-(N-(5-chloro-6-(2,6-dimethylphenyl)pyridin-2-yl)sulfamoyl)pyridin-2-yl)amino)butanoic Acid]: the EC50 came to 2.58 µM and the Emax stood at 722%.
On to `Cc1ccccc1-c1nc(NS(=O)(=O)c2cccc(N3CCC(CC(=O)O)C3)n2)ccc1C(F)(F)F` (centres unmarked) [Compound 32, 2-(1-(6-(N-(6-(o-tolyl)-5-(trifluoromethyl)pyridin-2-yl)sulfamoyl)pyridin-2-yl)pyrrolidin-3-yl)acetic Acid], for which the EC50 turned out to be 1.8 µM and the Emax stood at 372%.
In the case of `Cc1ccc(F)cc1-c1nc(NS(=O)(=O)c2cccc(N(CCCC(=O)O)CC3CC3)n2)ccc1C(F)(F)F` [Compound 104, 4-((cyclopropylmethyl)(6-(N-(6-(5-fluoro-2-methylphenyl)-5-(trifluoromethyl)pyridin-2-yl)sulfamoyl)pyridin-2-yl)amino)butanoic Acid], the EC50 came out at 1.28 µM.
For the compound `Cc1ccccc1-c1nc(NS(=O)(=O)c2cccc(N3CCCC(CCCC(=O)O)C3)n2)ccc1C(F)(F)F` (centres unmarked) [Compound 75, 4-(1-(6-(N-(6-(o-tolyl)-5-(trifluoromethyl)pyridin-2-yl)sulfamoyl)pyridin-2-yl)piperidin-3-yl)butanoic Acid], the EC50 came out at 2 µM.
Consider `CC1(CC(=O)O)CCN(c2cccc(S(=O)(=O)Nc3ccc(C(F)(F)F)c(-c4ccccc4C(C)(C)C)n3)n2)CC1` [Compound 26, 2-(1-(6-(N-(6-(2-(tert-butyl)phenyl)-5-(trifluoromethyl)pyridin-2-yl)sulfamoyl)pyridin-2-yl)-4-methylpiperidin-4-yl)acetic Acid], for which the EC50 amounted to 0.83 µM and the Emax is 829%.
Regarding `Cc1cccc(C)c1-c1nc(NS(=O)(=O)c2cccc(N(CCCC(=O)O)CC(C)C)n2)ccc1Cl` [Compound 155, 4-((6-(N-(5-chloro-6-(2,6-dimethylphenyl)pyridin-2-yl)sulfamoyl)pyridin-2-yl)(isobutyl)amino)butanoic Acid], the EC50 is 0.67 µM and the Emax stood at 699%.
As to `C=Cc1ccccc1-c1nc(NS(=O)(=O)c2cccc(N3CCCC(CCCC(=O)O)C3)n2)ccc1C(F)(F)F` (centres unmarked) [Compound 76, 4-(1-(6-(N-(5-(trifluoromethyl)-6-(2-vinylphenyl)pyridin-2-yl)sulfamoyl)pyridin-2-yl)piperidin-3-yl)butanoic Acid], the concentration for a half-maximal effect (EC50) was 1.46 µM.
For the compound `Cc1ccc(F)cc1-c1nc(NS(=O)(=O)c2cccc(N(C)CCC(=O)O)n2)ccc1C(F)(F)F` [Compound 48, 3-((6-(N-(6-(5-fluoro-2-methylphenyl)-5-(trifluoromethyl)pyridin-2-yl)sulfamoyl)pyridin-2-yl)(methyl)amino)propanoic Acid], the half-maximal effective concentration (EC50) came to 2.04 µM and the Emax came to 513%.
In the case of `O=C(O)CC1CCN(c2cccc(S(=O)(=O)Nc3ccc(C(F)(F)F)c(-c4ccccc4-c4ccccc4)n3)n2)CC1` [Compound 16, 2-(1-(6-(N-(6-([1,1′-biphenyl]-2-yl)-5-(trifluoromethyl)pyridin-2-yl)sulfamoyl)pyridin-2-yl)piperidin-4-yl)acetic Acid], the EC50 stood at 2.01 µM and the Emax is 495%.
As for `Cc1ccc(F)cc1-c1nc(NS(=O)(=O)c2cccc(N(CCC(=O)O)CC3CC3)n2)ccc1C(F)(F)F` [Compound 69, 3-((cyclopropylmethyl)(6-(N-(6-(5-fluoro-2-methylphenyl)-5-(trifluoromethyl)pyridin-2-yl)sulfamoyl)pyridin-2-yl)amino)propanoic Acid], the EC50 was 1.76 µM.
